# “Also recorded” adds a separate entry of the source. Marks after values point to notes of the source that are not given here.
# What was measured:
# [1] = Phase 1 clinical trial: pharmacokinetics after oral administration; format: in vivo, human; details: patients
# Method: A full 72-hour PK/PD profile will be conducted: subjects will be required to remain at the study site for 10 hours on Day −3 and return on Days −2, −1, and 1 for 24, 48, and 72 hour samples, respectively.
# All subjects will undergo PK/PD assessments over a 10-hour period on both C1D15 and C2D1. Additional pre-dose urine and/or blood sampling will be conducted on C1D8, C1D22, C2D15, C3D1, C3D15, and on Day 1 of all subsequent cycles. Available bone marrow biopsy samples also will be assessed for 2HG levels.
# The blood samples will also be used for the determination of 2HG concentrations and for evaluation of cholesterol and 4β-OH-cholesterol levels.
# The PK/PD profile from Day −3 through Day 1 is optional for additional subjects enrolled in the dose escalation phase (i.e., for any subjects beyond the 3 initial subjects enrolled in a cohort) and is not required for subjects enrolled in the expansion cohorts.
# All subjects will undergo 10-hour PK/PD sampling on C1D15 and C2D1 (i.e., on Days 15 and 29 of twice daily dosing). […] Blood samples also will be drawn on Days 8 and 22 of Cycle 1, Day 15 of Cycle 2, Days 1 and 15 of Cycle 3, and Day 1 of each cycle thereafter; all samples will be obtained prior to dosing. Additionally, one blood sample will be drawn at the End of Treatment Visit.
# [2] = Phase 1 clinical trial: safety, adverse events and patient disposition; format: in vivo, human
# Description: The study includes a dose escalation phase to determine MTD followed by expansion cohorts to further evaluate the safety and tolerability of the MTD. The dose escalation phase will utilize a standard “3+3” design. […] Each dose cohort will plan to enroll a minimum of 3 subjects. The first 3 subjects enrolled in each dosing cohort during the dose escalation phase of the study will initially receive a single dose of study drug on Day −3 (i.e., 3 days prior to the start of daily dosing) and undergo PK/PD assessments over 72 hours to evaluate drug concentrations and 2HG levels. The next dose of study drug will be on Cycle 1 Day 1 (C1D1) at which time daily dosing will begin. The initial dosing regimen will be twice daily (approximately every 12 hours). If warranted based on the emerging data, an alternative dosing schedule (e.g., once daily or three times daily), including administration of the same total daily dose using different dosing schedules in concurrent cohorts, may be explored. If there are multiple subjects in the screening process at the time the third subject within a cohort begins treatment, up to 2 additional subjects may be enrolled with approval of the Medical Monitor. For these additional subjects, the Day −3 through Day 1 PK/PD assessments are optional following discussion with the Medical Monitor. The planned dose escalation scheme is illustrated in Table 1.
# Toxicity severity will be graded according to the National Cancer Institute Common Terminology Criteria for Adverse Events (NCI CTCAE) version 4.03. A DLT is defined as follows. Hematologic includes prolonged myelosuppression, defined as persistence of ≥3 Grade neutropenia or thrombocytopenia (by NCI CTCAE, version 4.03, leukemia-specific criteria, i.e., marrow cellularity <5% on Day 28 or later from the start of study drug without evidence of leukemia) at least 42 days after the initiation of Cycle 1 therapy. Leukemia-specific grading should be used for cytopenias (based on percentage decrease from baseline: 50 to 75%=Grade 3, >75%=Grade 4). All AEs that cannot clearly be determined to be unrelated to Compound 1, or a pharmaceutically acceptable salt thereof will be considered relevant to determining DLTs.
# AEs, including determination of DLTs, serious adverse events (SAEs), and AEs leading to discontinuation; safety laboratory parameters; physical examination findings; vital signs; 12-lead ECGs; LVEF; and ECOG PS will be monitored during the clinical study. The severity of AEs will be assessed by the NCI CTCAE, Version 4.03.
# Adverse events will be summarized by Medical Dictionary for Regulatory Activities (MedDRA) system organ class and preferred term. Separate tabulations will be produced for all treatment-emergent AEs (TEAEs), treatment-related AEs (those considered by the Investigator as at least possibly drug related), SAEs, discontinuations due to AEs, and AEs of at least Grade 3 severity. By-subject listings will be provided for deaths, SAEs, DLTs, and AEs leading to discontinuation of treatment.
# [3] = tested on: advanced hematologic malignancies that harbor an IDH1 mutation (R/R AML); assay: Phase 1 clinical trial: clinical activity assessed by Investigator using IWG AML and MDS criteria; format: in vivo, human
# Description: Subjects will undergo radiographic evaluations (CT/MRI), and assessment of bone marrow aspirates and biopsies and peripheral blood to assess the extent of disease, at screening, on Day 15, Day 29 and Day 57, and every 56 days thereafter while on study drug treatment, independent of dose delays and/or dose interruptions, and/or at any time when progression of disease is suspected. Two core tumor biopsies will be obtained at screening, at the time of the first assessment of response, and at the time of disease progression within a window of ±3 days around the planned assessment time point. For patients with acute myelogenous leukemia (AML), response to treatment will be determined by the Investigators based on modified International Working Group (IWG) response criteria.
# Disease response to treatment will be assessed through the evaluation of bone marrow biopsies and/or aspirates, along with complete blood counts and examination of peripheral blood films. Subjects will have the extent of their disease assessed and recorded at screening, on Days 15, 29, and 57, every 56 days thereafter while on study drug treatment, independent of dose-delays and/or dose interruptions, and/or at any time when progression of disease is suspected. An assessment also will be conducted at the End of Treatment visit for subjects who discontinue the study due to reasons other than disease progression.
# Response to treatment as assessed by the site Investigators using modified IWG (for subjects with hematologic malignancies, such as MDS, MDS/MPN or AML). Two-sided 90% confidence intervals on the response rates will be calculated for each dose level and overall. Data will also be summarized by type of malignancy for subjects in the cohort expansion phase. Descriptive statistics will be used to summarize Ki67 levels from tumor biopsies.
# [4] = tested on: primary human IDH-mutated blast cells; assay: intracellular 2HG in primary blast cells ex vivo; format: cell-based; details: 0.5 uM, 1 uM and 5 uM
# 2HG = assay: Phase 1 clinical trial: plasma 2HG inhibition; format: in vivo, human; details: all dose levels
# Method: Samples collected for PK assessments also will be used to assess 2HG levels. In addition, subjects will have blood drawn for determination of 2HG levels at the screening assessment.
# The 2HG baseline was taken at Day −3 pre-treatment 2HG inhibition estimated based on 2HG pre-treatment level and AUC0-10 hr post treatment. For the 100 mg BID and 300 mg QD Cohorts, 3 to 4 patients were measured per time point and for the 500 mg QD Cohort, 1 to 3 patients were measured per time point.
# [5] = tested on: IDH1 mutant R132H xenograft model; assay: 2HG reduction in IDH1 mutant R132H xenograft model; format: in vivo; details: single dose (50 mg/kg)
# [6] = rat pharmacokinetics study of Example 4 (oral suspensions); format: in vivo, Sprague Dawley rats; details: Sprague Dawley, 200 mg/kg oral suspension in vehicle, plasma
# Method: The following three homogenous suspensions of Compound 1 are provided:
# Form 2 in vehicle (1% d-alpha-tocopheryl polyethylene glycol 1000 succinate (TPGS):1% HPMCAS in water), an amorphous solid dispersion of 25% w/w Form 2 and 75% w/w HPMCAS-M (Solid Dispersion A) in vehicle, and an amorphous solid dispersion of 25% w/w Form 2 and 75% w/w PVAP (Solid Dispersion B) in vehicle (200 mg/kg in 10 mL/kg).
# Each suspension is prepared on the day of dosing, and the Sprague Dawley rats are dosed orally. Serial plasma samples are taken at different time points following dosing. […] PK parameters, including AUC0-72 hr and Cmax, are calculated using WinNonlin software.
# [7] = solubility in fasted state simulated intestinal fluid (FASSIF); format: physicochemical; details: pH 6.1, fassif, pH of 6.1 at 4 hours
structure (smiles),measurement,setting,value
"N#Cc1ccnc(N2C(=O)CC[C@H]2C(=O)N(c2cncc(F)c2)[C@H](C(=O)NC2CC(F)(F)C2)c2ccccc2Cl)c1 [Compound 1, (S)—N—((S)-1-(2-chlorophenyl)-2-((3,3-difluorocyclobutyl)amino)-2-oxoethyl)-1-(4-cyanopyridin-2-yl)-N-(5-fluoropyridin-3-yl)-5-oxopyrrolidine-2-carboxamide]",half-life,"[1]; human, plasma",182 h
same,drug accumulation,[1],drug accumulation
same,plasma exposure,[1],high plasma exposure
same,"subjects discontinued study due to an intracranial bleed (SAE, resulted in death)",[2]; 100 mg BID,1
same,QT prolongation observed,"[2]; 100 mg cohort, patient with history of R BBB",patient population. Other QT prolongations observed: Grade 1 prolonged
same,subjects who experienced differentiation syndrome (SAE),[2]; 300 mg QD,1
same,DLT (dose limiting toxicity) observed,[2]; 800 mg QD,One DLT (dose limiting toxicity) of grade 3 QT prolongation
same,subjects who experienced tongue edema and QT prolongation (SAE),[2]; 800 mg QD,1
same,QT prolongation observed,[2]; 800 mg cohort,300 mg cohort; and Grade 3 prolonged QT (DLT) in 800 mg cohort.
same,At least 1 adverse event,[2]; All grades,14 (82) n (%)
same,Cough,[2]; All grades,4 (24) n (%)
same,Diarrhea,[2]; All grades,3 (18) n (%)
same,Dyspnea,[2]; All grades,5 (29) n (%)
same,Electrocardiogram QT prolonged,[2]; All grades,3 (18) n (%)
same,Fatigue,[2]; All grades,5 (29) n (%)
same,Febrile neutropenia,[2]; All grades,3 (18) n (%)
same,Nausea,[2]; All grades,5 (29) n (%)
same,Pyrexia,[2]; All grades,4 (24) n (%)
same,Vomiting,[2]; All grades,4 (24) n (%)
same,Death ≤28 days after Compound 1 Discontinuation,[2]; All patients (N = 17),6
same,Discontinued due to AE (intracranial hemorrhage),[2]; All patients (N = 17),1** n
same,Discontinued due to PD (progressive disease),[2]; All patients (N = 17),4 n
same,Death ≤28 days after Compound 1 Discontinuation,[2]; Cohort 1 100 mg BID (n = 4),3
same,Discontinued due to AE (intracranial hemorrhage),[2]; Cohort 1 100 mg BID (n = 4),1** n
same,Discontinued due to PD (progressive disease),[2]; Cohort 1 100 mg BID (n = 4),2 n
same,Death ≤28 days after Compound 1 Discontinuation,[2]; Cohort 2 300 mg QD (n = 4),2
same,Discontinued due to PD (progressive disease),[2]; Cohort 2 300 mg QD (n = 4),1 n
same,Death ≤28 days after Compound 1 Discontinuation,[2]; Cohort 3 500 mg QD (n = 4),1
same,Discontinued due to PD (progressive disease),[2]; Cohort 3 500 mg QD (n = 4),1 n
same,At least 1 adverse event,[2]; Grade ≥3,11 (65) n (%)
same,Cough,[2]; Grade ≥3,0 n (%)
same,Diarrhea,[2]; Grade ≥3,0 n (%)
same,Dyspnea,[2]; Grade ≥3,2 (12) n (%)
same,Electrocardiogram QT prolonged,[2]; Grade ≥3,1 (6) n (%)
same,Fatigue,[2]; Grade ≥3,1 (6) n (%)
same,Febrile neutropenia,[2]; Grade ≥3,3 (18) n (%)
same,Nausea,[2]; Grade ≥3,1 (6) n (%)
same,Pyrexia,[2]; Grade ≥3,1 (6) n (%)
same,Vomiting,[2]; Grade ≥3,0 n (%)
same,hypotension,[2]; Grade ≥3,"Notable grade ≥3 AEs include: hypotension 2 (12%), mental status n (%)"
same,mental status changes,[2]; Grade ≥3,"changes 2 (12%), neutropenia 2 (12%). AEs appear typical for this n (%)"
same,neutropenia,[2]; Grade ≥3,"changes 2 (12%), neutropenia 2 (12%). AEs appear typical for this n (%)"
same,subjects who experienced serious adverse events,[2]; all cohorts,Eight
same,CR (complete response),[3]; Cohort 1 100 mg BID (n = 4),1
same,"Overall response rate (ORR = CR, Marrow CR and PR)",[3]; Cohort 1 100 mg BID (n = 4),1/4
same,CR (complete response),[3]; Cohort 2 300 mg QD (n = 4),1
same,"Overall response rate (ORR = CR, Marrow CR and PR)",[3]; Cohort 2 300 mg QD (n = 4),1/4
same,PD (progressive disease),[3]; Cohort 2 300 mg QD (n = 4),1
same,CR (complete response),[3]; Cohort 3 500 mg QD (n = 4),1
same,Marrow CR (≤5% blasts in BM; no hematological recovery),[3]; Cohort 3 500 mg QD (n = 4),2
same,"Overall response rate (ORR = CR, Marrow CR and PR)",[3]; Cohort 3 500 mg QD (n = 4),3/4
same,CR (complete response),[3]; Cohort 4 800 mg QD (n = 2),1
same,"Overall response rate (ORR = CR, Marrow CR and PR)",[3]; Cohort 4 800 mg QD (n = 2),2/2
same,PR (partial response),[3]; Cohort 4 800 mg QD (n = 2),1
same,CR (complete response),[3]; Total N = 14,4
same,Marrow CR (≤5% blasts in BM; no hematological recovery),[3]; Total N = 14,2
same,"Overall response rate (ORR = CR, Marrow CR and PR)",[3]; Total N = 14,7/14
same,PD (progressive disease),[3]; Total N = 14,1
same,PR (partial response),[3]; Total N = 14,1
same,blasts in bone marrow,"[3]; patient refractory to 7+3, after 2 weeks of therapy",< 5%
same,response of single patient,"[3]; patient, after 2 weeks of therapy, maintained at D28",met the criteria for a full CR
same,intracellular 2HG,[4],reduced intracellular 2HG
same,plasma levels of 2HG,"2HG; 100 mg BID, 300 mg QD or 500 mg QD",reduced to a normal range; also recorded: reduced to normal ranges
same,plasma 2HG inhibition,"2HG; vs Day -3 pre-treatment level, AUC0-10 hr post treatment",up to 98%
same,2HG in xenograft,[5],Reduction in 2HG was observed
"N#Cc1ccnc(N2C(=O)CC[C@H]2C(=O)N(c2cncc(F)c2)[C@H](C(=O)NC2CC(F)(F)C2)c2ccccc2Cl)c1 [Form 2, (S)—N—((S)-1-(2-chlorophenyl)-2-((3,3-difluorocyclobutyl)amino)-2-oxoethyl)-1-(4-cyanopyridin-2-yl)-N-(5-fluoropyridin-3-yl)-5-oxopyrrolidine-2-carboxamide]",Cmax,[6],1600 ng/mL
same,AUC(0-t),[6]; read-out: AUC0-72 hr,21700 ng·h/mL
same,solubility at 4 h,[7],~18 µg/mL

# From patent US10449184B2, “Pharmaceutical compositions of therapeutically active compounds” (Agios Pharmaceuticals, Inc., priority 2014, dated 2019)
